Earlier results, collected in patent US7402323B2, “Compositions and methods for treating skin conditions” (AkPharma, Inc., priority 2002, dated 2008).

How the values were obtained:
[1] = test system: stratum corneum; settings: normal thickness 14 cells
[2] = test system: cultured neurons and astrocytes; settings: compared with control cultures or with cultures supplemented with calcium or glycerophosphate alone

| Compound | stratum corneum thickness after treatment [1] | solubility in water | number of cells in supplemented cultures [2] |
| --- | --- | --- | --- |
| CC1=C(/C=C/C(C)=C/C=C/C(C)=C/C(=O)O)C(C)(C)CCC1 [Retinoic acid] | 5 cells |  |  |
| O=P([O-])([O-])OCC(O)CO.[Ca+2] (stereo not drawn) [calcium glycerophosphate, 1,2,3-propanetriol, mono(dihydrogen phosphate) calcium salt (1:1)] |  | highly soluble | more cells |
